# Molecular target: T1, Human recombinant Casp9 (Homo sapiens, UniProt P55211)
# T1 construct: purchased BioVision (Milpitas/CA, USA)
# T1 sequence (P55211 1-416): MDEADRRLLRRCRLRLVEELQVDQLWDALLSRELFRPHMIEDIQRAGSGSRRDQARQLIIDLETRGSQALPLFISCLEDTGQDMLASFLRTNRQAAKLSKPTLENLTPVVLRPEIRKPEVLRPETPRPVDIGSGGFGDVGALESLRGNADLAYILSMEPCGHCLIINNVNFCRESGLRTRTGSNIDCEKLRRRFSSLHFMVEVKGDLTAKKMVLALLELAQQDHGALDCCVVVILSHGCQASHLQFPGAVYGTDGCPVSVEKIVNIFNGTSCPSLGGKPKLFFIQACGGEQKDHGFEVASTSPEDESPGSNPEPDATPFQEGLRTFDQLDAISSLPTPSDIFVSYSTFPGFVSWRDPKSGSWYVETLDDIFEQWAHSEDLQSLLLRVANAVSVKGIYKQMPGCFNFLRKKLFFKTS
# Assay: In vitro caspase panel assay, Casp9
# Assay type: biochemical
# Settings: Casp2 over Casp9, caspase panel
# Excerpt: Human recombinant Casp1, 6, 7, and 9 were purchased from BioVision (Milpitas/CA, USA). AFC fluorogenic substrates and control peptides (AcYVAD-CHO, AcVDVAD-CHO, AcDEVD-CHO, AcVEID-CHO, and AcLEHD-CHO) were purchased from Bachem (Torrance/CA, USA). The pET23b vector encoding human caspase-3 was a gift of Dr. Michelle Arkin at University of California, San Francisco. Expression and purification of Casp3 was guided by previously described protocols (Denault J-B, Salvesen G S., Current Protocols in Protein Science, 2002, 30(1), 21.13. 1-21.13. 15). Briefly, the plasmid was transformed into E. coli Rosetta 2 pLyss DE3 cells that were cultured at 1 L scale in shake flasks. […] The typical yield for the expression, isolation, and purification was approximately 3 mg/L. The DNA encoding human caspase-2 (hCASP2, amino acids 170-452, free of the N-terminal caspase activation and recruitment domain) open reading frame (ORF) was amplified via polymerase chain reaction (PCR) from full-length hCASP2 cDNA (Origene, Rockville, MD; Cat #SC321316) using following primers: forward, 5′-[…]-3′; reverse, 5′-[…]-3′. […] Proteins were stored in 1× phosphate-buffered saline (pH 7.4) at 10 mg/mL (concentration determined using a BCA assay (Thermo Fisher Scientific)), −80° C. until further use. […]
structure (smiles),measurement,value
"Cc1ccc2c(c1)CCN(C(=O)[C@@H](NC(=O)[C@H](CCCC(=O)O)NC(=O)C1Cc3ccccc3N1)C(C)C)[C@@H]2C(=O)N[C@H](C#N)CC(=O)O (stereo partly drawn) [Compound 1, (8)-6-(((S)-1-((8)-1-(((S)-2-carboxy-1-cyanoethyl)carbamoyl)-6-methyl-3,4-dihydroisoquinolin-2(1H)-yl)-3-methyl-1-oxobutan-2-yl)amino)-5-((S)-indoline-2-carboxamido)-6-oxohexanoic acid]",selective versus Casp9,> 2000 fold

# From patent US20250188123A1, “PROTEASE INHIBITORS” (Regents of the University of Minnesota, priority 2022, published 2025)
